The values below come from ChEMBL document CHEMBL3045295, “Antifeedant triterpenoids from the seeds and bark of Lansium domesticum cv Kokossan (Meliaceae)” (2011).

Each structure is given as a SMILES string.

This assay deals with Henosepilachna vigintioctopunctata. The assay can be described thus: Antifeedant activity against fourth-instar larvae of Henosepilachna vigintioctopunctata on Solanum nigrum leaves at 1 % relative to control. The format is functional.
`C=C1CC[C@H]2C(C)(C)C(=O)CC[C@]2(C)[C@H]1CC[C@H]1C(C)=CC[C@H]2C(C)(C)C(=O)CC[C@]12C` gave an AFI of 56%.

`CC1=CC[C@H]2C(C)(C)C(=O)CC[C@]2(C)[C@H]1CC[C@H]1C(C)=CC[C@H]2C(C)(C)C(=O)CC[C@]12C` registered an AFI of 85%.

For the compound `COC(=O)[C@@H]1O[C@]23O[C@H]4CC[C@]5(C)C(=CC(=O)O[C@H]5c5ccoc5)[C@H]4C[C@]2(O)C(=O)C(C)(C)[C@H]1[C@@H]3C` [KOKOSANOLIDE A], the AFI came out at 78%.

`COC(=O)[C@@H]1O[C@]23O[C@H]4CC[C@]5(C)C(=CC(=O)O[C@H]5c5ccoc5)[C@H]4C[C@]2(O)CC(C)(C)[C@H]1[C@@H]3C` [KOKOSANOLIDE C] gave an AFI of 0%.

With `CC1=CC[C@H]2C(C)(C)C(=O)CC[C@]2(C)[C@H]1CC[C@H]1C(C)(O)CC[C@H]2C(C)(C)C(=O)CC[C@]12C` (stereo not given in full) [Kokosanolide B], the AFI was found to be 99%.
